The values that follow come from ChEMBL document CHEMBL5356991, “Naphthyl bearing 1,3,4-thiadiazoleacetamides targeting the parasitic folate pathway as anti-infectious agents: in silico, synthesis, and biological approach” (RSC Med Chem, 2023).

For data set [1], the system named is Erythrocyte. Put plainly: Hemolytic activity in human RBC assessed as hemolysis at 200 uM incubated for 1 hr by spectrophotometric analysis. The format is toxicity, cell-based.
Data set [2] can be described thus: Hemolytic activity in human RBC assessed as hemolysis at 12.5 uM incubated for 1 hr by spectrophotometric analysis relative to control. In kind it is toxicity, cell-based, Erythrocyte. The settings on record: human red blood cells (erythrocytes), read-out: Activity.
Data set [3] relates to Plasmodium falciparum. Put plainly: Antimalarial activity against chloroquine-resistant Plasmodium falciparum W2 assessed as parasite growth inhibition incubated for 72 hrs by Malstat reagent based LDH assay. The following applies: W2, 72 h. In kind it is functional, organism-based.
Data set [4] concerns Plasmodium falciparum. Put plainly: Antimalarial activity against chloroquine-sensitive Plasmodium falciparum NF54 assessed as parasite growth inhibition incubated for 72 hrs by Malstat reagent based LDH assay. In kind it is functional, organism-based. The following applies: NF54, 72 h.
Another data set concerns Leishmania donovani. Briefly: Antileishmanial activity against promastigote stage of Leishmania donovani assessed as parasite growth inhibition incubated for 24 hrs by MTT assay. The format is functional, organism-based. (In general: Formazan colour is commonly taken as a measure of viable cells.)
Data set [5] is described as follows: Cytotoxicity against human HEK293 cells assessed as cell growth at 50 uM incubated for 48 hrs by MTT assay relative to control. The settings on record: read-out: Activity. In kind it is toxicity, cell-based.
Data set [6] is described as follows: Safety index, ratio of IC50 for antimalarial activity against chloroquine-sensitive Plasmodium falciparum NF54 to IC50 for cytotoxicity against human HEK293 cells. In kind it is toxicity, cell-based. The settings on record: HEK293 cells versus Plasmodium falciparum NF54, read-out: Ratio IC50.
A short description of data set [7]: Selectivity index, ratio of IC50 for cytotoxicity against African green monkey Vero cells to IC50 for inhibition of bovine liver DHFR.
A further data set concerns the target T1, Dihydrofolate reductase (Bos taurus, UniProt P00376).
T1 sequence (P00376 whole entry): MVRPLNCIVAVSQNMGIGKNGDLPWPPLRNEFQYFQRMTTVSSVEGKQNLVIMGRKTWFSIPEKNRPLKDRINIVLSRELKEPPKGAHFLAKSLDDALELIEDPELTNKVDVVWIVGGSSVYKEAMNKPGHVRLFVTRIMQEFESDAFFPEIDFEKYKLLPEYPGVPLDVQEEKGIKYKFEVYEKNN
Put plainly: Inhibition of bovine liver DHFR incubated for 12 mins in presence of NADPH.

The next data set has as its system Vero. Put plainly: Cytotoxicity against African green monkey Vero cells upto 1000 uM. The format is toxicity, cell-based. The settings on record: chlorocebus sabaeus.
A short description of data set [8]: Cytotoxicity against human HEK293 cells incubated for 48 hrs by MTT assay. In kind it is toxicity, cell-based.
Data set [9] relates to Plasmodium falciparum. Put plainly: Resistance index, ratio of IC50 for antimalarial activity against chloroquine-resistant Plasmodium falciparum W2 to IC50 for antimalarial activity against chloroquine-sensitive Plasmodium falciparum NF54. The format is functional.
The test system of data set [10] is Erythrocyte. Put plainly: Hemolytic activity in human RBC assessed as hemolysis at 12.5 to 200 uM incubated for 1 hr by spectrophotometric analysis. The format is toxicity, cell-based. The following applies: dose 12.5-200 µM.

pIC50: −log10 of the molar value.

As usually defined, the pIC50 is the IC50 on a negative log10 scale, so that one unit is a factor of ten. Consider `O=C(CN1CCCCC1)Nc1nnc(COc2ccc3ccccc3c2)s1`, for which, in the data set on Erythrocyte [1], the Activity entry is recorded as “Toxic”. Besides, the hemolysis at 1 h, 12.5 µM in [2] was < 10%. The pIC50 in the data set with Plasmodium falciparum [3] is < 5.00; in the data set on Plasmodium falciparum [4] it was 4.67; in the data set on Leishmania donovani, 5.17. Further, the viability at 48 h, 50 µM in data set [5] came to 86.9%. The selectivity ratio in data set [6] turned out to be 2.33.
`C=C[C@H]1CN2CC[C@H]1C[C@H]2[C@H](O)c1ccnc2ccc(OC)cc12` [QUININE]: the pIC50 in the data set with Plasmodium falciparum [4] was 6.97.
`O=C(CN1CCN(C(c2ccccc2)c2ccccc2)CC1)Nc1nnc(COc2ccc3ccccc3c2)s1`: the Activity entry was “Toxic” in the data set on Erythrocyte [1] and “Non-Toxic” in the data set with Vero. In addition, the hemolysis at 1 h, 12.5 µM in [2] is < 10%. In addition, the “Ratio IC50” value in data set [7] is given as 535.245. Moreover, the pIC50 was < 5.00 in the data set on Plasmodium falciparum [3], 6.03 in the data set with Plasmodium falciparum [4], 5.45 in the data set on Leishmania donovani and 5.73 on Dihydrofolate reductase. Moreover, the viability at 48 h, 50 µM in data set [5] worked out at 94.4%. For the same compound, the selectivity ratio in data set [6] came out at 53.2.
For the compound `Cc1ccc(N2CCN(CC(=O)Nc3nnc(COc4ccc5ccccc5c4)s3)CC2)cc1`, the hemolysis at 1 h, 12.5 µM in data set [2] is < 10%. Further, the pIC50 in the data set on Plasmodium falciparum [3] is < 5.00; with Plasmodium falciparum [4], 4.20; with Leishmania donovani, 5.21. The viability at 48 h, 50 µM in data set [5] worked out at 66.4%. The selectivity ratio in [6] came to 0.79.
`O=C(CN1CCOCC1)Nc1nnc(COc2ccc3ccccc3c2)s1`: the hemolysis at 1 h, 12.5 µM in data set [2] is < 10%. The negative logarithm of the IC50 (pIC50) in the data set with Plasmodium falciparum [3] is < 5.00; in the data set with Plasmodium falciparum [4], 4.97; in the data set on Leishmania donovani it was 5.23. Also, the viability at 48 h, 50 µM in data set [5] worked out at 70%. Besides, the selectivity ratio in data set [6] stood at 6.54.
In general, IC50 refers to the midpoint of a concentration-inhibition curve. Take `CN1CCN(CC(=O)Nc2nnc(COc3ccc4ccccc4c3)s2)CC1`: the hemolysis at 1 h, 12.5 µM in data set [2] is < 10%. Moreover, the negative-log IC50 (pIC50) was < 5.00 in the data set on Plasmodium falciparum [3], 5.11 with Plasmodium falciparum [4] and 5.15 in the data set on Leishmania donovani. Moreover, in [5], the viability at 48 h, 50 µM is 42.8%. Further, the IC50 at 48 h in data set [8] came out at 69.2 µM. In addition, in data set [6], the selectivity ratio was 8.85.
As for `CCOC(=O)c1cnc2ccccc2c1N1CCN(CC(=O)Nc2nnc(COc3ccc4ccccc4c3)s2)CC1`, in [2], the hemolysis at 1 h, 12.5 µM was < 10%. Moreover, the results for the pIC50 in the data set with Plasmodium falciparum [3], with Plasmodium falciparum [4] and with Leishmania donovani were < 5.00, 4.54 and 5.27, respectively. Further, the viability at 48 h, 50 µM in [5] was 59.8%. The selectivity ratio in [6] amounted to 1.73.
Regarding `O=C(CN1CCN(c2cc(N3CCOCC3)ncn2)CC1)Nc1nnc(COc2ccc3ccccc3c2)s1`, the hemolysis at 1 h, 12.5 µM in data set [2] was < 10%. The pIC50 in the data set with Plasmodium falciparum [3] is < 5.00; in the data set on Plasmodium falciparum [4], 4.21; with Leishmania donovani, 5.18. In addition, the viability at 48 h, 50 µM in data set [5] amounted to 87.4%. The selectivity ratio in data set [6] worked out at 0.82.
On to `O=C(CN1CCN(c2ccnc3cc(Cl)ccc23)CC1)Nc1nnc(COc2ccc3ccccc3c2)s1`, for which the Activity result is on record as “Toxic” in the data set on Erythrocyte [1] and “Non-Toxic” in the data set with Vero. Also, the hemolysis at 1 h, 12.5 µM in data set [2] was < 10%. The “Ratio IC50” value is recorded as 340.518 in data set [7] and 0.99 in the data set with Plasmodium falciparum [9]. The pIC50 in the data set on Plasmodium falciparum [3] was 5.41; with Plasmodium falciparum [4], 5.41; with Leishmania donovani it was 5.14; on Dihydrofolate reductase it was 5.53. For the same compound, the viability at 48 h, 50 µM in [5] is 43.3%. This compound came in with a half-inhibitory concentration (IC50) at 48 h in data set [8] of 70.4 µM. Besides, the selectivity ratio in data set [6] was found to be 9.44.
Regarding `O=C(CN1CCN(c2ccccc2O)CC1)Nc1nnc(COc2ccc3ccccc3c2)s1`, the Activity entry in the data set on Erythrocyte [1] is reported as “Toxic”; in the data set on Vero it was “Non-Toxic”. Moreover, the hemolysis at 1 h, 12.5 µM in data set [2] is < 10%. The “Ratio IC50” value in [7] was 400.881. The pIC50 was < 5.00 in the data set on Plasmodium falciparum [3], 5.46 with Plasmodium falciparum [4], 5.36 with Leishmania donovani and 5.60 at Dihydrofolate reductase. For the same compound, the viability at 48 h, 50 µM in data set [5] was found to be 92.9%. In addition, the selectivity ratio in data set [6] is 14.4.
As to `COc1ccc(N2CCN(CC(=O)Nc3nnc(COc4ccc5ccccc5c4)s3)CC2)cc1`, the hemolysis at 1 h, 12.5 µM in data set [2] is < 10%. Moreover, the values for the pIC50 in the data set with Plasmodium falciparum [3], in the data set with Plasmodium falciparum [4] and in the data set with Leishmania donovani were < 5.00, < 3.70 and 5.26, respectively. For the same compound, in [5], the viability at 48 h, 50 µM is 58%. For the same compound, the selectivity ratio in data set [6] was 0.25.
Take `CCCCCCCCCCCCCCCCOP(=O)([O-])OCC[N+](C)(C)C` [MILTEFOSINE]: the pIC50 in the data set on Leishmania donovani is 6.72.
For `CCN(CC)CCCC(C)Nc1ccnc2cc(Cl)ccc12` (stereo unspecified) [CHLOROQUINE], the Activity entry in the data set on Erythrocyte [10] is “Toxic”. Moreover, in [5], the viability at 48 h, 50 µM is 58.5%. In data set [8], this compound yielded an IC50 at 48 h of 17.2 µM.
